What is called Km is the concentration of substrate that gives half-maximal velocity.

One molecule from article PMC9299796, “A Specialized Dehydrogenase Provides L‐Phenyllactate for FR900359 Biosynthesis” (Chembiochem, 2021) can be followed below.

The test concerns FrsC. The conditions noted are these: 0.5 mM NADPH, pH 6, 30 °C, 1 μM FrsC, tag removed.

With `O=C(O)C(=O)Cc1ccccc1` [phenylpyruvic acid], the Km worked out at 1370 ± 410 µM.
